Results reported in patent US9181230B2, “Morpholine compounds and uses thereof” (Hoffmann-La Roche Inc., priority 2013, dated 2015).
Structures can show the parent of a compound that is named as a salt.

Tests used:
mouse TAAR1 = mouse TAAR1 (Mus musculus (Mouse), UniProt Q923Y8); test: Radioligand binding assay on mouse TAAR1; details: mouse TAAR1, membranes of HEK-293 cells, first value of the cell pair mouse/rat
Method: (§1) For the construction of expression plasmids the coding sequences of human, rat and mouse TAAR 1 were amplified from genomic DNA essentially as described by Lindemann et al.. The Expand High Fidelity PCR System (Roche Diagnostics) was used with 1.5 mM Mg^2+ and purified PCR products were cloned into pCR2.1-TOPO cloning vector (Invitrogen) following the instructions of the manufacturer. PCR products were subcloned into the pIRESneo2 vector (BD Clontech, Palo Alto, Calif.), and expression vectors were sequence verified before introduction in cell lines.
(§2) HEK293 cells (ATCC # CRL-1573) were cultured essentially as described by Lindemann et al. (2005). For the generation of stably transfected cell lines HEK293 cells were transfected with the pIRESneo2 expression plasmids containing the TAAR coding sequences (described above) with Lipofectamine 2000 (Invitrogen) according to the instructions of the manufacturer, and 24 hrs post transfection the culture medium was supplemented with 1 mg/ml G418 (Sigma, Buchs, Switzerland). After a culture period of about 10 d clones were isolated, expanded and tested for responsiveness to trace amines (all compounds purchased from Sigma) with the cAMP Biotrak Enzyme immunoassay (EIA) System (Amersham) following the non-acetylation EIA procedure provided by the manufacturer.
(A) Radioligand Binding Assay on Mouse TAAR1
(§3) Membrane Preparation and Radioligand Binding.
(§4) HEK-293 cells stably expressing mouse TAAR1 were maintained at 37° C. and 5% CO2 in DMEM high glucose medium, containing fetal calf serum (10%, heat inactivated for 30 min at 56° C.), penicillin/streptomycin (1%), and 375 μg/ml geneticin (Gibco). Cells were released from culture flasks using trypsin/EDTA, harvested, washed twice with ice-cold PBS (without Ca^2+ and Mg^2+), pelleted at 1,000 rpm for 5 min at 4° C., frozen and stored at −80° C. Frozen pellets were suspended in 20 ml HEPES-NaOH (20 mM, pH 7.4) containing 10 mM EDTA and homogenized with a Polytron (PT 6000, Kinematica) at 14,000 rpm for 20 s. The homogenate was centrifuged at 48,000×g for 30 min at 4° C. Subsequently, the supernatant was removed and discarded, and the pellet resuspended in 20 ml HEPES-NaOH (20 mM, pH 7.4) containing 0.1 mM EDTA using the Polytron (20 s at 14,000 rpm). This procedure was repeated and the final pellet resuspended in HEPES-NaOH containing 0.1 mM EDTA and homogenized using the Polytron. Typically, aliquots of 2 ml membrane portions were stored at −80° C. With each new membrane batch the dissociation constant (Kd) was determined via a saturation curve. […] Nonspecific binding was defined as the amount of ^3[H]-(S)-4-[(ethyl-phenyl-amino)-methyl]-4,5-dihydro-oxazol-2-ylamine bound in the presence of 10 μM unlabeled ligand. All compounds were tested at a broad range of concentrations (10 pM to 10 μM) in duplicates. […] The 96 deep well plates were incubated for 1 hr at 4° C. Incubations were terminated by rapid filtration through Unifilter-96 plates (Packard Instrument Company) and glass filters GF/C (Perkin Elmer) presoaked for 1 hr in polyethylenimine (0.3%) and washed 3 times with 1 ml of cold binding buffer. After addition of 45 μl of Microscint 40 (PerkinElmer) the Unifilter-96 plate was sealed and after 1 hr the ratioactivity counted using a TopCount Microplate Scintillation Counter (Packard Instrument Company).

rat TAAR1 = rat TAAR1 (Rattus norvegicus (Rat), UniProt Q923Y9); test: Radioligand binding assay on rat TAAR1; details: rat TAAR1, membranes of HEK-293 cells, second value of the cell pair mouse/rat
Method: as §1, §2
(B) Radioligand Binding Assay on Rat TAAR1
as §3
as §4, with “rat” for “mouse”

Chain of mouse TAAR1 (Q923Y8 whole entry): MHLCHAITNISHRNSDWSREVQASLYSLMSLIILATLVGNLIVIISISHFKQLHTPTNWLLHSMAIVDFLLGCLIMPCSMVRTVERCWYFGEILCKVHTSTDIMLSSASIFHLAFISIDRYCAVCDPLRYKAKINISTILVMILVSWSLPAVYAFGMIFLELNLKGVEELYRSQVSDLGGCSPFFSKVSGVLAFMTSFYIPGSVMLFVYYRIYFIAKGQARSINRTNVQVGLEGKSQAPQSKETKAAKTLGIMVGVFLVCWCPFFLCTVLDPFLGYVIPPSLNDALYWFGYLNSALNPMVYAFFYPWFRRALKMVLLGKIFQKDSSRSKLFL
Chain of rat TAAR1 (Q923Y9 whole entry): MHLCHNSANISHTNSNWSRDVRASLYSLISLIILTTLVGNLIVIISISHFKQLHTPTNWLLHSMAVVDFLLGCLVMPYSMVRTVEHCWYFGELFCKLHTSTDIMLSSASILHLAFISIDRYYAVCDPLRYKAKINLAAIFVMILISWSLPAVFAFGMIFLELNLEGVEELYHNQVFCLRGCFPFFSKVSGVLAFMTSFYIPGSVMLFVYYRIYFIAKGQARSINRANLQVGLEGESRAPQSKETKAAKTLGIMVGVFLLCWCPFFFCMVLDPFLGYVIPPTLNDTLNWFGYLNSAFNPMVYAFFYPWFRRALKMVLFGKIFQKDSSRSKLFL

SMILES	Ki (mouse TAAR1)	Ki (rat TAAR1)
Clc1ccc(-c2cc(-c3ccc([C@@H]4CNCCO4)cc3)n[nH]2)cn1 [Example 38, (R)-2-{4-[5-(6-Chloro-pyridin-3-yl)-1H-pyrazol-3-yl]-phenyl}-morpholine hydrochloride]	0.0027 µM	0.0257 µM
Fc1ccc(-c2cc(-c3ccc([C@@H]4CNCCO4)cc3)n[nH]2)c(F)c1 [Example 14, (R)-2-(4-(5-(2,4-Difluorophenyl)-1H-pyrazol-3-yl)phenyl)morpholine hydrochloride]	0.0008 µM	–
N#Cc1ccc(-c2cc(-c3ccc([C@H]4CNCCO4)cc3)n[nH]2)cc1 [Example 28, (S)-4-(3-(4-(Morpholin-2-yl)phenyl)-1H-pyrazol-5-yl)benzonitrile hydrochloride]	0.001 µM	0.0168 µM
Fc1ccc(-c2cc(-c3ccc([C@H]4CNCCO4)cc3)n[nH]2)c(F)c1 [Example 13, (S)-2-(4-(5-(2,4-Difluorophenyl)-1H-pyrazol-3-yl)phenyl)morpholine hydrochloride]	0.0003 µM	–
Fc1ccc(-c2nc3cc([C@@H]4CNCCO4)ccc3[nH]2)cc1 [Example 44, (R)-2-(2-(4-Fluorophenyl)-1H-benzo[d]imidazol-5-yl)morpholine hydrochloride]	0.004 µM	–
Fc1ccc(-c2cc(-c3ccc([C@H]4CNCCO4)cc3)n[nH]2)cc1 [Example 29, (S)-2-(4-(5-(4-Fluorophenyl)-1H-pyrazol-3-yl)phenyl)morpholine hydrochloride]	0.0007 µM	0.0044 µM
FC(F)(F)c1cnc2[nH]c3ccc([C@H]4CNCCO4)cc3c2c1 [Example 46, (S)-2-(3-(Trifluoromethyl)-9H-pyrido[2,3-b]indol-6-yl)morpholine hydrochloride]	0.0023 µM	0.0698 µM
Clc1cc(-c2cc(-c3ccc([C@H]4CNCCO4)cc3)n[nH]2)ccn1 [Example 42, (S)-2-(4-(5-(2-Chloropyridin-4-yl)-1H-pyrazol-3-yl)phenyl)morpholine hydrochloride]	0.0016 µM	–
Fc1ccc(-c2nc3cc([C@H]4CNCCO4)ccc3[nH]2)cc1 [Example 43, (S)-2-(2-(4-Fluorophenyl)-1H-benzo[d]imidazol-5-yl)morpholine hydrochloride]	0.0014 µM	–
c1cnc2[nH]c3ccc([C@H]4CNCCO4)cc3c2c1 [Example 45, (S)-2-(9H-Pyrido[2,3-b]indol-6-yl)morpholine hydrochloride]	–	1 µM
Fc1ccc(-n2cc(-c3ccc([C@@H]4CNCCO4)cc3)nn2)cc1 [Example 35, (R)-2-(4-(1-(4-Fluorophenyl)-1H-1,2,3-triazol-4-yl)phenyl)morpholine hydrochloride]	0.0017 µM	–
Brc1cnc2nc(-c3ccc([C@H]4CNCCO4)cc3)[nH]c2c1 [Example 7, (S)-2-(4-(6-bromo-1H-imidazo[4,5-b]pyridin-2-yl)phenyl)morpholine hydrochloride]	0.0089 µM	–
Clc1cnc2[nH]c3ccc([C@H]4CNCCO4)cc3c2c1 [Example 47, (S)-2-(3-Chloro-9H-pyrido[2,3-b]indol-6-yl)morpholine hydrochloride]	0.0032 µM	0.075 µM
FC(F)(F)c1cc(-c2nc3ccc([C@@H]4CNCCO4)cc3o2)ccn1 [Example 54, (R)-6-(Morpholin-2-yl)-2-(2-(trifluoromethyl)pyridin-4-yl)benzo[d]oxazole hydrochloride]	–	0.448 µM
Fc1ccc(-c2ncn(-c3ccc([C@@H]4CNCCO4)cc3)n2)cc1 [Example 36, (R)-2-(4-(3-(4-Fluorophenyl)-1H-1,2,4-triazol-1-yl)phenyl)morpholine hydrochloride]	0.0097 µM	–
Fc1cc(F)c2nc(-c3ccc([C@H]4CNCCO4)cc3)[nH]c2c1 [Example 11, (S)-2-(4-(4,6-Difluoro-1H-benzo[d]imidazol-2-yl)phenyl)morpholine hydrochloride]	0.009 µM	–
Clc1ccc2nc(-c3ccc(C4CNCCO4)cc3)[nH]c2c1 (stereo not shown) [Example 2, 2-(4-(6-Chloro-1H-benzo[d]imidazol-2-yl)phenyl)morpholine hydrochloride]	0.0032 µM	–
Fc1ccc(-c2cn(-c3ccc([C@H]4CNCCO4)cc3)nn2)cc1 [Example 27, (S)-2-(4-(4-(4-Fluorophenyl)-1H-1,2,3-triazol-1-yl)phenyl)morpholine hydrochloride]	0.0004 µM	–
N#Cc1ccc(-c2cc(-c3ccc([C@H]4CNCCO4)cc3)n[nH]2)c(F)c1 [Example 33, (S)-3-Fluoro-4-(3-(4-(morpholin-2-yl)phenyl)-1H-pyrazol-5-yl)benzonitrile hydrochloride]	0.0016 µM	–
Cc1cc2nc(-c3ccc([C@H]4CNCCO4)cc3)[nH]c2cc1C [Example 16, (S)-2-(4-(5,6-Dimethyl-1H-benzo[d]imidazol-2-yl)phenyl)morpholine hydrochloride]	–	1.14 µM
Fc1ccc(-n2cc(-c3ccc([C@H]4CNCCO4)cc3)nn2)cc1 [Example 18, (S)-2-(4-(1-(4-Fluorophenyl)-1H-1,2,3-triazol-4-yl)phenyl)morpholine hydrochloride]	0.002 µM	–
Fc1ccc(-c2ncn(-c3ccc([C@H]4CNCCO4)cc3)n2)cc1 [Example 25, (S)-2-(4-(3-(4-Fluorophenyl)-1H-1,2,4-triazol-1-yl)phenyl)morpholine hydrochloride]	0.0034 µM	–
Fc1ccc(-c2cn(-c3ccc([C@@H]4CNCCO4)cc3)nn2)cc1 [Example 39, (R)-2-(4-(4-(4-Fluorophenyl)-1H-1,2,3-triazol-1-yl)phenyl)morpholine hydrochloride]	0.001 µM	–
O=C(Nc1cc(-c2ccc([C@H]3CNCCO3)cc2)n[nH]1)c1ccc(F)cc1 [Example 30, (S)-4-Fluoro-N-(3-(4-(morpholin-2-yl)phenyl)-1H-pyrazol-5-yl)benzamide hydrochloride]	0.0022 µM	–
FC(F)(F)c1ccc2c(n1)[nH]c1ccc([C@H]3CNCCO3)cc12 [Example 49, (S)-2-(2-(Trifluoromethyl)-9H-pyrido[2,3-b]indol-6-yl)morpholine hydrochloride]	0.0032 µM	–
FC(F)(F)c1cc(-c2nc3ccc([C@H]4CNCCO4)cc3o2)ccn1 [Example 55, (S)-6-(Morpholin-2-yl)-2-(2-(trifluoromethyl)pyridin-4-yl)benzo[d]oxazole hydrochloride]	–	0.304 µM
